# PubChem BioAssay AID248 (DTP/NCI, 2004)
# Several values for one entry are separate records, joined by “and”; a condition that tells them apart may be missing. Equal entries are not always repeated. Toxic doses and inconclusive results are not listed.
# System: L1210 leukemia ip in BDF1 mice, survival T/C
# Test: NCI In Vivo Anticancer Drug Screen. Data for tumor model L1210 Leukemia (intraperitoneal) in B6D2F1 (BDF1) mice
# Conditions: endpoint: mean survival time, higher = longer survival
# In short: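 Survival endpoint. Drug-treated group vs vehicle group, expressed as T divided by C. Tumor passaged by transplantation.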
# [1] = dose: 100.0 mg/kg/injection, schedule: Q01DX009 (ip), vehicle: saline with Tween-80
# [2] = dose: 200.0 mg/kg/injection, schedule: Q01DX009 (ip), vehicle: saline with Tween-80
# [3] = dose: 100.0 mg/kg/injection, schedule: Q01DX009 (ip), vehicle: Klucel (hydroxypropylcellulose) (HPC)
# [4] = dose: 200.0 mg/kg/injection, schedule: Q01DX009 (ip), vehicle: Klucel (hydroxypropylcellulose) (HPC)
# [5] = dose: 400.0 mg/kg/injection, schedule: Q01DX009 (ip), vehicle: Klucel (hydroxypropylcellulose) (HPC)
# [6] = dose: 100.0 mg/kg/injection, schedule: Q04DX002 (ip), vehicle: saline
# [7] = dose: 200.0 mg/kg/injection, schedule: Q04DX002 (ip), vehicle: saline
# [8] = dose: 400.0 mg/kg/injection, schedule: Q04DX002 (ip), vehicle: saline
# [9] = dose: 100.0 mg/kg/injection, schedule: Q04DX003 (ip), vehicle: Klucel (hydroxypropylcellulose) (HPC)
# [10] = dose: 200.0 mg/kg/injection, schedule: Q04DX003 (ip), vehicle: Klucel (hydroxypropylcellulose) (HPC)
# [11] = dose: 400.0 mg/kg/injection, schedule: Q04DX003 (ip), vehicle: Klucel (hydroxypropylcellulose) (HPC)
# [12] = dose: 100.0 mg/kg/injection, schedule: Q01DX001 (ip), vehicle: saline
# [13] = dose: 200.0 mg/kg/injection, schedule: Q01DX001 (ip), vehicle: saline
# [14] = dose: 400.0 mg/kg/injection, schedule: Q01DX001 (ip), vehicle: saline
# [15] = dose: 100.0 mg/kg/injection, schedule: Q04DX003 (ip), vehicle: saline with Tween-80
# [16] = dose: 200.0 mg/kg/injection, schedule: Q04DX003 (ip), vehicle: saline with Tween-80
# [17] = dose: 400.0 mg/kg/injection, schedule: Q04DX003 (ip), vehicle: saline with Tween-80
# [18] = dose: 100.0 mg/kg/injection, schedule: Q04DX003 (ip), vehicle: carboxymethylcellulose (CMC)
# [19] = dose: 200.0 mg/kg/injection, schedule: Q04DX003 (ip), vehicle: carboxymethylcellulose (CMC)
structure (smiles),measurement,setting,value
Nc1n[nH]c(=O)[nH]1,T/C,"dose: 44.0 mg/kg/injection, schedule: Q03HX024 (ip), vehicle: saline",108 % of control
same,T/C,"dose: 67.0 mg/kg/injection, schedule: Q03HX024 (ip), vehicle: saline",107 % of control
same,T/C,"dose: 100.0 mg/kg/injection, schedule: Q01DX009 (ip), vehicle: saline",115 % of control
same,T/C,"dose: 100.0 mg/kg/injection, schedule: Q03HX024 (ip), vehicle: saline",112 % of control
same,T/C,"dose: 177.0 mg/kg/injection, schedule: Q01DX009 (ip), vehicle: saline",120 % of control
same,T/C,"dose: 200.0 mg/kg/injection, schedule: Q01DX009 (ip), vehicle: saline",121 % of control
same,T/C,"dose: 225.0 mg/kg/injection, schedule: Q03HX024 (ip), vehicle: saline",153 % of control
same,T/C,"dose: 266.0 mg/kg/injection, schedule: Q01DX009 (ip), vehicle: saline",180 % of control
same,T/C,"dose: 266.0 mg/kg/injection, schedule: Q04DX003 (ip), vehicle: saline",104 % of control
same,T/C,"dose: 400.0 mg/kg/injection, schedule: Q01DX009 (ip), vehicle: saline",185 % of control
same,T/C,"dose: 400.0 mg/kg/injection, schedule: Q04DX003 (ip), vehicle: saline",113 % of control
same,T/C,"dose: 600.0 mg/kg/injection, schedule: Q01DX009 (ip), vehicle: saline",164 % of control and 186 % of control
same,T/C,"dose: 600.0 mg/kg/injection, schedule: Q04DX003 (ip), vehicle: saline",118 % of control
O=C(CC(=O)Oc1ccc(Cl)cc1Cl)Oc1ccc(Cl)cc1Cl,T/C,[1],93 % of control
same,T/C,[2],90 % of control
same,T/C,"dose: 400.0 mg/kg/injection, schedule: Q01DX009 (ip), vehicle: saline with Tween-80",95 % of control
CCOC(=O)CCC1(CCC(=O)OCC)c2ccccc2-c2ccccc21,T/C,[3],97 % of control
same,T/C,[4],100 % of control
same,T/C,[5],94 % of control
O=Cc1cccc(OCc2cccc([N+](=O)[O-])c2)c1,T/C,[3],98 % of control
same,T/C,"dose: 100.0 mg/kg/injection, schedule: Q04DX002 (ip), vehicle: Klucel (hydroxypropylcellulose) (HPC)",108 % of control
same,T/C,[6],102 % of control
same,T/C,[4],102 % of control
same,T/C,"dose: 200.0 mg/kg/injection, schedule: Q04DX002 (ip), vehicle: Klucel (hydroxypropylcellulose) (HPC)",105 % of control
same,T/C,[7],97 % of control
same,T/C,[5],95 % of control
same,T/C,"dose: 400.0 mg/kg/injection, schedule: Q04DX002 (ip), vehicle: Klucel (hydroxypropylcellulose) (HPC)",97 % of control
same,T/C,[8],108 % of control
Cc1cc(C)c2c(c1)-c1nc3c(cc1CC2)CCc1c(C)cc(C)cc1-3,T/C,[9],100 % of control
same,T/C,[10],95 % of control
same,T/C,[11],97 % of control
CC1(C)C2CCC1(C(=O)O)C(=O)C2 (stereo not drawn),T/C,[1],96 % of control
same,T/C,[2],95 % of control
COc1cc2c(cc1OC)C(CNC(=O)/C=C/c1ccccc1)C2 (stereo not drawn),T/C,[3],106 % of control
same,T/C,[9],101 % of control
same,T/C,[4],101 % of control
same,T/C,[10],94 % of control
same,T/C,[5],95 % of control
same,T/C,[11],97 % of control
O=C1C=CC(=O)N1CN1CCOCC1,T/C,"dose: 3.12 mg/kg/injection, schedule: Q01DX009 (ip), vehicle: saline with Tween-80",96 % of control
same,T/C,"dose: 6.25 mg/kg/injection, schedule: Q01DX009 (ip), vehicle: saline with Tween-80",96 % of control
same,T/C,"dose: 12.5 mg/kg/injection, schedule: Q01DX009 (ip), vehicle: saline with Tween-80",93 % of control
O=P(O)(Oc1ccccc1)c1ccccc1,T/C,[12],107 % of control
same,T/C,[13],105 % of control
same,T/C,[14],100 % of control
c1ccc(N=NC2(c3ccccc3)CCC(c3ccccc3)=NN2c2ccccc2)cc1 (stereo not drawn),T/C,[15],100 % of control
same,T/C,[16],89 % of control
same,T/C,[17],93 % of control
Cc1ccccc1NP1(=O)OCCCN1Cc1ccc(Cl)cc1 (stereo not drawn),T/C,"dose: 50.0 mg/kg/injection, schedule: Q01DX001 (ip), vehicle: saline",106 % of control
same,T/C,[12],102 % of control
same,T/C,[13],106 % of control
same,T/C,[14],100 % of control
O=C1CC(C(=O)O)C2(CCCCC2)O1 (stereo not drawn),T/C,"dose: 100.0 mg/kg/injection, schedule: Q04DX002 (ip), vehicle: saline with Tween-80",104 % of control
same,T/C,"dose: 200.0 mg/kg/injection, schedule: Q04DX002 (ip), vehicle: saline with Tween-80",101 % of control
same,T/C,"dose: 400.0 mg/kg/injection, schedule: Q04DX002 (ip), vehicle: saline with Tween-80",101 % of control
O=C(O)CCCCCCCCCCN1C(=O)CCC1=O,T/C,[18],98 % of control
same,T/C,[19],92 % of control
same,T/C,"dose: 400.0 mg/kg/injection, schedule: Q04DX003 (ip), vehicle: carboxymethylcellulose (CMC)",104 % of control
OCC(O)C(O)/C=N/N(Cc1ccccc1)c1ccccc1 (stereo not drawn),T/C,"dose: 50.0 mg/kg/injection, schedule: Q01DX001 (ip), vehicle: carboxymethylcellulose (CMC)",103 % of control
same,T/C,"dose: 100.0 mg/kg/injection, schedule: Q01DX001 (ip), vehicle: carboxymethylcellulose (CMC)",101 % of control
same,T/C,"dose: 200.0 mg/kg/injection, schedule: Q01DX001 (ip), vehicle: carboxymethylcellulose (CMC)",101 % of control
same,T/C,"dose: 400.0 mg/kg/injection, schedule: Q01DX001 (ip), vehicle: carboxymethylcellulose (CMC)",97 % of control
CC(=O)C(C)(C)/C(C)=C/C(=O)O,T/C,[3],95 % of control
same,T/C,[9],100 % of control
same,T/C,[4],95 % of control
same,T/C,[10],100 % of control
same,T/C,[5],98 % of control
same,T/C,[11],97 % of control
Cc1cccc(C)c1NC(=O)OCCOc1ccc(Cl)cc1Cl,T/C,"dose: 50.0 mg/kg/injection, schedule: Q01DX009 (ip), vehicle: saline with Tween-80",90 % of control
same,T/C,[1],95 % of control
same,T/C,[2],95 % of control
CC1=CCC2C(=O)C=CC(=O)C2C1 (stereo not drawn),T/C,"dose: 5.0 mg/kg/injection, schedule: Q01DX009 (ip), vehicle: Klucel (hydroxypropylcellulose) (HPC)",98 % of control
same,T/C,"dose: 10.0 mg/kg/injection, schedule: Q01DX001 (ip), vehicle: carboxymethylcellulose (CMC)",107 % of control
same,T/C,"dose: 10.0 mg/kg/injection, schedule: Q01DX009 (ip), vehicle: Klucel (hydroxypropylcellulose) (HPC)",89 % of control
same,T/C,"dose: 20.0 mg/kg/injection, schedule: Q01DX001 (ip), vehicle: carboxymethylcellulose (CMC)",109 % of control
same,T/C,"dose: 20.0 mg/kg/injection, schedule: Q01DX009 (ip), vehicle: Klucel (hydroxypropylcellulose) (HPC)",96 % of control
same,T/C,"dose: 40.0 mg/kg/injection, schedule: Q01DX001 (ip), vehicle: carboxymethylcellulose (CMC)",107 % of control
same,T/C,"dose: 80.0 mg/kg/injection, schedule: Q01DX001 (ip), vehicle: carboxymethylcellulose (CMC)",109 % of control
Nc1[nH]c(=O)ncc1-c1ccc(Cl)cc1,T/C,"dose: 50.0 mg/kg/injection, schedule: Q01DX009 (ip), vehicle: Klucel (hydroxypropylcellulose) (HPC)",96 % of control
same,T/C,[3],100 % of control
C=CCNC(=O)c1ccc(C(=O)NCC=C)cc1,T/C,[12],102 % of control
same,T/C,[13],102 % of control
same,T/C,[14],98 % of control
CC(C)=CCC/C(C)=C/CC/C(C)=C/COC(N)=O,T/C,[9],93 % of control
same,T/C,[10],96 % of control
same,T/C,[11],91 % of control
O=C(N/N=C\c1ccc(-c2ccccc2)cc1)N/N=C/c1ccc(-c2ccccc2)cc1,T/C,[18],90 % of control
same,T/C,[19],87 % of control
Nc1cc(=O)[nH]c(=S)[nH]1,T/C,[6],99 % of control
same,T/C,[7],92 % of control
same,T/C,[8],101 % of control
CN(C(=O)c1cccc([N+](=O)[O-])c1)C1CCCCC1,T/C,[3],93 % of control
same,T/C,[4],100 % of control
same,T/C,[5],96 % of control
O=C(O)C1CCC2SC(F)(F)C(F)(F)C2C1 (stereo not drawn),T/C,[15],98 % of control
same,T/C,[16],96 % of control
same,T/C,[17],98 % of control
Cc1ccc(S(=O)(=O)N2CCCC(=O)c3ccc(Cl)cc32)cc1,T/C,[3],101 % of control
same,T/C,[9],96 % of control
same,T/C,[4],104 % of control
same,T/C,[10],100 % of control
same,T/C,[5],95 % of control
same,T/C,[11],91 % of control
